Data reported in the supplement of paper PMC10307832.

Legend:
Assay in all cases: relative viability (nuclei count vs DMSO), 5 days (fraction); higher = more cells survive
[1] = tested on: 201T
In short: (§1)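 Dosing by pin tool came one day after lung cancer cell lines were seeded in 1536-well plates, using either one drug or a fixed anchor-drug dose plus five library-drug doses (not always all listed) in √10 steps. After 5 days, nuclei were counted on 4× images. Relative viability is treated-well nuclei count divided by vehicle-well nuclei count, and values are medians of duplicate plates.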

[2] = tested on: COR-L 105
In short: as §1

[3] = tested on: COR-L23
In short: as §1

[4] = tested on: EMC-BAC-2
In short: as §1

[5] = tested on: HCC-15
In short: as §1

[6] = tested on: HCC-366
In short: as §1

[7] = tested on: LC-2-ad
In short: as §1

[8] = tested on: NCI-H1395
In short: as §1

[9] = tested on: NCI-H1437
In short: as §1

[10] = tested on: NCI-H1755
In short: as §1

[11] = tested on: NCI-H1792
In short: as §1

[12] = tested on: NCI-H1793
In short: as §1

[13] = tested on: NCI-H1915
In short: as §1

[14] = tested on: NCI-H2009
In short: as §1

[15] = tested on: NCI-H2023
In short: as §1

[16] = tested on: NCI-H2342
In short: as §1

[17] = tested on: NCI-H2347
In short: as §1

[18] = tested on: NCI-H23
In short: as §1

[19] = tested on: NCI-H358
In short: as §1

[20] = tested on: NCI-H650
In short: as §1

[21] = tested on: PC-14
In short: as §1

[22] = tested on: SK-MES-1
In short: as §1

CN1CCN(CCOc2cc(OC3CCOCC3)c3c(Nc4c(Cl)ccc5c4OCO5)ncnc3c2)CC1 [Saracatinib] + Cc1nc(Nc2ncc(C(=O)Nc3c(C)cccc3Cl)s2)cc(N2CCN(CCO)CC2)n1 [Dasatinib] (partner 0.075 µM) showed a relative viability ([1]; first compound 0.02 µM) of 0.602, a relative viability ([1]; first compound 0.2 µM) of 0.567 and a relative viability ([1]; first compound 0.6325 µM) of 0.57. The relative viability ([1]; first compound 2 µM) was 0.489, the relative viability ([2]; first compound 0.02 µM) was 0.448 and the relative viability ([2]; first compound 0.2 µM) was 0.457. It also gave a relative viability ([2]; first compound 0.6325 µM) of 0.376, a relative viability ([2]; first compound 2 µM) of 0.242 and a relative viability ([3]; first compound 0.02 µM) of 0.553. The relative viability ([3]; first compound 0.2 µM) was 0.533, the relative viability ([3]; first compound 0.6325 µM) was 0.542 and the relative viability ([3]; first compound 2 µM) was 0.478. The relative viability ([4]; first compound 0.02 µM) was 0.321, the relative viability ([4]; first compound 0.2 µM) was 0.286 and the relative viability ([4]; first compound 0.6325 µM) was 0.324. For the same compound, the relative viability ([4]; first compound 2 µM) was 0.294, the relative viability ([5]; first compound 0.02 µM) was 0.595 and the relative viability ([5]; first compound 0.2 µM) was 0.524. The relative viability ([5]; first compound 0.6325 µM) was 0.605, the relative viability ([5]; first compound 2 µM) was 0.561 and the relative viability ([6]; first compound 0.02 µM) was 0.636. It also gave a relative viability ([6]; first compound 0.6325 µM) of 0.678, a relative viability ([6]; first compound 2 µM) of 0.607 and a relative viability ([7]; first compound 0.02 µM) of 0.611. For the same compound, the relative viability ([7]; first compound 0.2 µM) was 0.571, the relative viability ([7]; first compound 0.6325 µM) was 0.794 and the relative viability ([7]; first compound 2 µM) was 0.596. The relative viability ([8]; first compound 0.02 µM) was 0.394, the relative viability ([8]; first compound 0.2 µM) was 0.418 and the relative viability ([8]; first compound 0.6325 µM) was 0.411. For the same compound, the relative viability ([8]; first compound 2 µM) was 0.402, the relative viability ([9]; first compound 0.02 µM) was 0.494 and the relative viability ([9]; first compound 0.2 µM) was 0.283. The relative viability ([9]; first compound 0.6325 µM) was 0.389, the relative viability ([9]; first compound 2 µM) was 0.289 and the relative viability ([10]; first compound 0.02 µM) was 0.422. The relative viability ([10]; first compound 0.2 µM) was 0.318, the relative viability ([10]; first compound 0.6325 µM) was 0.439 and the relative viability ([10]; first compound 2 µM) was 0.404. The relative viability ([11]; first compound 0.02 µM) was 0.824, the relative viability ([11]; first compound 0.2 µM) was 0.566 and the relative viability ([11]; first compound 0.6325 µM) was 0.894. For the same compound, the relative viability ([11]; first compound 2 µM) was 0.711, the relative viability ([12]; first compound 0.02 µM) was 0.439 and the relative viability ([12]; first compound 0.6325 µM) was 0.426. It also gave a relative viability ([12]; first compound 2 µM) of 0.341, a relative viability ([13]; first compound 0.02 µM) of 0.308 and a relative viability ([13]; first compound 0.2 µM) of 0.292. It also gave a relative viability ([13]; first compound 0.6325 µM) of 0.282, a relative viability ([13]; first compound 2 µM) of 0.322 and a relative viability ([14]; first compound 0.02 µM) of 0.298. It also gave a relative viability ([14]; first compound 0.2 µM) of 0.274, a relative viability ([14]; first compound 0.6325 µM) of 0.262 and a relative viability ([14]; first compound 2 µM) of 0.265. It also gave a relative viability ([15]; first compound 0.02 µM) of 0.664, a relative viability ([15]; first compound 0.2 µM) of 0.651 and a relative viability ([15]; first compound 0.6325 µM) of 0.608. For the same compound, the relative viability ([15]; first compound 2 µM) was 0.553, the relative viability ([16]; first compound 0.02 µM) was 0.398 and the relative viability ([16]; first compound 0.2 µM) was 0.327. The relative viability ([16]; first compound 0.6325 µM) was 0.305, the relative viability ([16]; first compound 2 µM) was 0.295 and the relative viability ([17]; first compound 0.02 µM) was 0.305. The relative viability ([17]; first compound 0.2 µM) was 0.293, the relative viability ([17]; first compound 0.6325 µM) was 0.32 and the relative viability ([17]; first compound 2 µM) was 0.346. The relative viability ([18]; first compound 0.02 µM) was 0.805, the relative viability ([18]; first compound 0.2 µM) was 0.613 and the relative viability ([18]; first compound 0.6325 µM) was 0.837. For the same compound, the relative viability ([18]; first compound 2 µM) was 0.789, the relative viability ([19]; first compound 0.02 µM) was 0.168 and the relative viability ([19]; first compound 0.2 µM) was 0.16. It also gave a relative viability ([19]; first compound 0.6325 µM) of 0.18, a relative viability ([19]; first compound 2 µM) of 0.103 and a relative viability ([20]; first compound 0.02 µM) of 0.491. It also gave a relative viability ([20]; first compound 0.2 µM) of 0.416, a relative viability ([20]; first compound 0.6325 µM) of 0.477 and a relative viability ([20]; first compound 2 µM) of 0.429. The relative viability ([21]; first compound 0.02 µM) was 0.211, the relative viability ([21]; first compound 0.2 µM) was 0.127 and the relative viability ([21]; first compound 0.6325 µM) was 0.0455. The relative viability ([21]; first compound 2 µM) was 0.0398, the relative viability ([22]; first compound 0.02 µM) was 0.4 and the relative viability ([22]; first compound 0.2 µM) was 0.289. It also gave a relative viability ([22]; first compound 0.6325 µM) of 0.233 and a relative viability ([22]; first compound 2 µM) of 0.186.
CN1CCN(CCOc2cc(OC3CCOCC3)c3c(Nc4c(Cl)ccc5c4OCO5)ncnc3c2)CC1 [Saracatinib] + N=C(N)NC(=N)NCCc1ccccc1 [Phenformin] (partner 250 µM) showed a relative viability ([1]; first compound 0.02 µM) of 0.391, a relative viability ([1]; first compound 0.2 µM) of 0.415 and a relative viability ([1]; first compound 0.6325 µM) of 0.422. It also gave a relative viability ([1]; first compound 2 µM) of 0.369, a relative viability ([2]; first compound 0.02 µM) of 0.586 and a relative viability ([2]; first compound 0.2 µM) of 0.532. It also gave a relative viability ([2]; first compound 0.6325 µM) of 0.438, a relative viability ([2]; first compound 2 µM) of 0.256 and a relative viability ([3]; first compound 0.02 µM) of 0.466. For the same compound, the relative viability ([3]; first compound 0.2 µM) was 0.393, the relative viability ([3]; first compound 0.6325 µM) was 0.481 and the relative viability ([3]; first compound 2 µM) was 0.449. The relative viability ([4]; first compound 0.02 µM) was 0.521, the relative viability ([4]; first compound 0.2 µM) was 0.432 and the relative viability ([4]; first compound 0.6325 µM) was 0.418. It also gave a relative viability ([4]; first compound 2 µM) of 0.35, a relative viability ([5]; first compound 0.02 µM) of 0.487 and a relative viability ([5]; first compound 0.2 µM) of 0.402. The relative viability ([5]; first compound 0.6325 µM) was 0.417, the relative viability ([5]; first compound 2 µM) was 0.329 and the relative viability ([6]; first compound 0.02 µM) was 0.694. For the same compound, the relative viability ([6]; first compound 0.6325 µM) was 0.599, the relative viability ([6]; first compound 2 µM) was 0.346 and the relative viability ([7]; first compound 0.02 µM) was 0.588. For the same compound, the relative viability ([7]; first compound 0.2 µM) was 0.554, the relative viability ([7]; first compound 0.6325 µM) was 0.652 and the relative viability ([7]; first compound 2 µM) was 0.546. It also gave a relative viability ([8]; first compound 0.02 µM) of 0.434, a relative viability ([8]; first compound 0.2 µM) of 0.455 and a relative viability ([8]; first compound 0.6325 µM) of 0.474. For the same compound, the relative viability ([8]; first compound 2 µM) was 0.348, the relative viability ([9]; first compound 0.02 µM) was 0.375 and the relative viability ([9]; first compound 0.2 µM) was 0.345. It also gave a relative viability ([9]; first compound 0.6325 µM) of 0.329, a relative viability ([9]; first compound 2 µM) of 0.27 and a relative viability ([10]; first compound 0.02 µM) of 0.665. The relative viability ([10]; first compound 0.2 µM) was 0.484, the relative viability ([10]; first compound 0.6325 µM) was 0.597 and the relative viability ([10]; first compound 2 µM) was 0.478. For the same compound, the relative viability ([11]; first compound 0.02 µM) was 0.258, the relative viability ([11]; first compound 0.2 µM) was 0.167 and the relative viability ([11]; first compound 0.6325 µM) was 0.241. The relative viability ([11]; first compound 2 µM) was 0.405, the relative viability ([12]; first compound 0.02 µM) was 0.439 and the relative viability ([12]; first compound 0.6325 µM) was 0.308. The relative viability ([12]; first compound 2 µM) was 0.263, the relative viability ([13]; first compound 0.02 µM) was 0.374 and the relative viability ([13]; first compound 0.2 µM) was 0.333. The relative viability ([13]; first compound 0.6325 µM) was 0.364, the relative viability ([13]; first compound 2 µM) was 0.333 and the relative viability ([14]; first compound 0.02 µM) was 0.45. The relative viability ([14]; first compound 0.2 µM) was 0.428, the relative viability ([14]; first compound 0.6325 µM) was 0.389 and the relative viability ([14]; first compound 2 µM) was 0.334. The relative viability ([15]; first compound 0.02 µM) was 0.448, the relative viability ([15]; first compound 0.2 µM) was 0.303 and the relative viability ([15]; first compound 0.6325 µM) was 0.236. It also gave a relative viability ([15]; first compound 2 µM) of 0.257, a relative viability ([16]; first compound 0.02 µM) of 0.702 and a relative viability ([16]; first compound 0.2 µM) of 0.529. It also gave a relative viability ([16]; first compound 0.6325 µM) of 0.673, a relative viability ([16]; first compound 2 µM) of 0.505 and a relative viability ([17]; first compound 0.02 µM) of 0.38. The relative viability ([17]; first compound 0.2 µM) was 0.26, the relative viability ([17]; first compound 0.6325 µM) was 0.377 and the relative viability ([17]; first compound 2 µM) was 0.342. It also gave a relative viability ([18]; first compound 0.02 µM) of 0.807, a relative viability ([18]; first compound 0.2 µM) of 0.631 and a relative viability ([18]; first compound 0.6325 µM) of 0.917. For the same compound, the relative viability ([18]; first compound 2 µM) was 0.739, the relative viability ([19]; first compound 0.02 µM) was 0.37 and the relative viability ([19]; first compound 0.2 µM) was 0.298. For the same compound, the relative viability ([19]; first compound 0.6325 µM) was 0.23, the relative viability ([19]; first compound 2 µM) was 0.171 and the relative viability ([20]; first compound 0.02 µM) was 0.465. The relative viability ([20]; first compound 0.2 µM) was 0.429, the relative viability ([20]; first compound 0.6325 µM) was 0.495 and the relative viability ([20]; first compound 2 µM) was 0.461. For the same compound, the relative viability ([21]; first compound 0.02 µM) was 0.646, the relative viability ([21]; first compound 0.2 µM) was 0.441 and the relative viability ([21]; first compound 0.6325 µM) was 0.256. The relative viability ([21]; first compound 2 µM) was 0.124, the relative viability ([22]; first compound 0.02 µM) was 0.65 and the relative viability ([22]; first compound 0.2 µM) was 0.613. It also gave a relative viability ([22]; first compound 0.6325 µM) of 0.613 and a relative viability ([22]; first compound 2 µM) of 0.634.
